Common to all, as to assay type: cell-based
The test system of assay [1] is human embryonic stem cells (H9 or H1 lines). Put plainly: Plate reader (MTS) proliferation assay. To be noted: for activity at 10 µM: Homo sapiens, Embryonic stem cell, 96 h; for activity at 10 µM / % Control Value (proliferation): 10 μM test compound with 100 ng/ml activin A on days 1-2, MTS OD490 on day 4, vs Activin A/Wnt3a positive control, strong and moderate hits; for Average: average of replicate raw data; for Raw Data: replicate wells, plate reader proliferation screen of GSK-3B inhibitors; for Average (of Raw Data): plate reader raw signal, mean of replicate wells. A digest of the protocol: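 H9 or H1 cells on Matrigel, washed, then given DMEM:F12 with 0.5% FCS, 100 ng/ml activin A and 10 μM compound (days 1–2), then 2% FCS plus activin A (days 3–4). MTS added day 4, OD490 read after 1.5–4 h at 37 °C; triplicates as percent of activin A/Wnt3a control.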

In assay [2] the test system is Sox17 expression in human embryonic stem cells (H9 line). Put plainly: High content screening assay: Sox17 protein expression (differentiation). To be noted: for SOX17 Expression, Fold over Wnt 3a/AA control: 10 μM test compound with 100 ng/ml activin A on days 1-2, H9, total intensity by IN Cell Analyzer, strong and moderate hits; for SOX-17 Expression Fold over Wnt 3a/AA control: total intensity normalised to Wnt 3a/AA control. A digest of the protocol:
(§1)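 H9 hESCs on MATRIGEL treated days 1-2 with 10 μM compound in DMEM:F12, 0.5% FCS, 100 ng/ml activin A; days 3-4 with 2% FCS plus activin A without compound. Fixed cells immunostained for Sox17 or HNF-3beta with Draq5 nuclear counterstain. Cell number and staining intensity quantified by high-content imaging, 12 fields/well.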

Assay [3] concerns human embryonic stem cells (H9 line). As to the kind of experiment: High content screening assay: cell number (proliferative response). Summed up:
as §1

The test system of assay [4] is HNF-3beta expression in human embryonic stem cells (H9 line). Put plainly: High content screening assay: HNF-3beta protein expression (differentiation). To be noted: for HNF3β Expression, Fold over Wnt 3a/AA control: 10 μM test compound with 100 ng/ml activin A on days 1-2, H9, total intensity by IN Cell Analyzer, strong and moderate hits; for HNF-3b Expression Fold over Wnt 3a/AA control: total intensity normalised to Wnt 3a/AA control. A digest of the protocol:
as §1

Setting [5] is: cell number in the wells analysed for HNF-3b expression.
Where [6] appears, read: cell number in the wells analysed for SOX-17 expression.
Where [7] appears, read: cell number in the wells analysed for HNF-3b expression, normalised to Wnt 3a/AA control.
Where [8] appears, read: cell number in the wells analysed for SOX-17 expression, normalised to Wnt 3a/AA control.
The mark [9] stands for this setting: 10 μM test compound with 100 ng/ml activin A on days 1-2, H9, total cell number by IN Cell Analyzer, strong and moderate hits.
Where [10] appears, read: relative to AA/Wnt3a/DMSO positive control (100.0) of the same plate.
The mark [11] stands for this setting: proliferation of human embryonic stem cells.
Setting [12] is: proliferation of human embryonic stem cells, AA/Wnt3a = 100.0, no cells = 0.0.

Where “and” joins values, the source holds several entries; their conditions need not be identical. Equal entries are not always repeated.

Regarding `OCCC#Cc1nc(-c2ccc(F)cc2)c(-c2ccncc2)n1CCCc1ccccc1` [Compound 158, 4-[4-(4-Fluorophenyl)-1-(3-phenylpropyl)-5-pyridin-4-yl-1H-imidazol-2-yl]but-3-yn-1-ol], in assay [1], the activity at 10 µM is 84.7% and the Average was determined as 1.2242. For the same molecule, the “SOX-17 Expression Total Intensity” value in assay [2] was 324450000. The “Proliferative Response Total cells” value in assay [3] (setting [5]) is reported as 6058. Besides, in assay [3] (setting [6]), the “Proliferative Response Total cells” value came out at 6376. For the same molecule, in assay [4], the “HNF-3b Expression Total Intensity” value was 269025000.
For the molecule `O=C1NC(=O)C2=C1c1cn(c3ccccc13)CCOCCOCCOCCn1cc2c2ccccc21` [Compound 163, 6,7,9,10,12,13,15,16-Octahydro-23H-5,26:17,22-di(metheno)dibenzo[k,q]pyrrolo[3,4-n][1,4,7,10,19]trioxadiazacyclohenicosine-23,25(24H)-dione], in assay [1], the “% Control Value (proliferation)” value amounted to 142.3%; the Average came to 1.3242; the “Raw Data” value is 1.3764 and 1.2753 and 1.3208. For the same molecule, in assay [2], the “SOX17 Expression, Fold over Wnt 3a/AA control” value (shortened to “SOX17 Expression, Fold”) is 0.9266 Fold over Wnt 3a/AA control; the “SOX-17 Expression Total Intensity” value was found to be 28506437; the “SOX-17 Expression Fold over Wnt 3a/AA control” value (from here on “SOX-17 Expression Fold”) is on record as 0.9266 fold. Moreover, the “Proliferative Response Total cells” value in assay [3] (setting [5]) was 5485. Besides, in assay [3] (setting [7]), the “Proliferative Response Fold over Wnt 3a/AA control” value (“Proliferative Response Fold” for short) came to 4.327 fold. Further, the “Proliferative Response Total cells” value in assay [3] (setting [6]) was determined as 1313. The “Proliferative Response Fold” value in assay [3] (setting [8]) was 0.7864 fold. Also, in assay [4], the “HNF3β Expression, Fold over Wnt 3a/AA control” value (from here on “HNF3β Expression, Fold”) was 3.1115 Fold over Wnt 3a/AA control; the “HNF-3b Expression Total Intensity” value is listed as 85245671; the “HNF-3b Expression Fold over Wnt 3a/AA control” value (“HNF-3b Expression Fold” for short) is listed as 3.1115 fold.
As for `O=C1NC(=O)C2=C1c1cn(c3ccccc13)CCOCCOCCn1cc2c2ccccc21` [Compound 164, 6,7,9,10,12,13-Hexahydro-20H-5,23:14,19-di(metheno)dibenzo[h,n]pyrrolo[3,4-k][1,4,7,16]dioxadiazacyclooctadecine-20,22(21H)-dione], in assay [1], the “% Control Value (proliferation)” value came to 68.2%; the Average is 0.6350; the “Raw Data” value was 0.6923 and 0.5994 and 0.6134. In addition, in assay [2], the “SOX-17 Expression Total Intensity” value came to 85949 and the “SOX-17 Expression Fold” value is 0.0028 fold. In assay [3] (setting [5]), the “Proliferative Response Total cells” value was 67. Also, the “Proliferative Response Fold” value in assay [3] (setting [7]) is given as 0.05259 fold. The “Proliferative Response Total cells” value in assay [3] (setting [6]) came out at 12. Further, the “Proliferative Response Fold” value in assay [3] (setting [8]) was found to be 0.007385 fold. In assay [4], the “HNF-3b Expression Total Intensity” value was found to be 1300640 and the “HNF-3b Expression Fold” value worked out at 0.0475 fold.
As to `O=C1NC(=O)C2=C1c1cn(c3ccccc13)CCOCCOCCOCCOCCn1cc2c2ccccc21` [Compound 165, 10,11,13,14,16,17,19,20,22,23-Decahydro-1H-9,4:24,29-di(metheno)dibenzo[n,t]pyrrolo[3,4-q][1,4,7,10,13,22]tetraoxadiazacyclotetracosine-1,3(2H)-dione], in assay [1], the “% Control Value (proliferation)” value is given as 195.3%; the Average is given as 1.8175; the “Raw Data” value is 1.7896 and 1.4721 and 2.1908. In assay [2], the “SOX17 Expression, Fold” value was 1.0630 Fold over Wnt 3a/AA control; the “SOX-17 Expression Total Intensity” value came to 32703235; the “SOX-17 Expression Fold” value stood at 1.0630 fold. Also, the “Proliferative Response Fold” value in assay [3] (setting [9]) is given as 5.8846 Fold over Wnt 3a/AA control. The “Proliferative Response Total cells” value in assay [3] (setting [5]) was determined as 7460. Also, the “Proliferative Response Fold” value in assay [3] (setting [7]) stood at 5.885 fold. In addition, the “Proliferative Response Total cells” value in assay [3] (setting [6]) turned out to be 2899. For the same molecule, in assay [3] (setting [8]), the “Proliferative Response Fold” value was found to be 1.736 fold. Further, in assay [4], the “HNF3β Expression, Fold” value is given as 5.4668 Fold over Wnt 3a/AA control; the “HNF-3b Expression Total Intensity” value was 149772525; the “HNF-3b Expression Fold” value turned out to be 5.4668 fold.
For `O=C(Nc1ccc(C(=O)N2CC3CSCCN3Cc3ccccc32)c(Cl)c1)c1cc(Cl)cc(Cl)c1` (stereo not drawn) [Compound 166, 3,5-Dichloro-N-[3-chloro-4-(3,4,12,12a-tetrahydro-1H-[1,4]thiazino[3,4-c][1,4]benzodiazepin-11(6H)-ylcarbonyl)phenyl]benzamide], in assay [1], the activity at 10 µM turned out to be 180% and the Average amounted to 1.6794. For the same molecule, in assay [2], the “SOX-17 Expression Total Intensity” value was found to be 11388240. The fold induction at 10 µM in assay [3] (Homo sapiens, Embryonic stem cell, 10 μM test compound with 100 ng/ml activin A on days 1-2, H9, total cell number by IN Cell Analyzer, strong and moderate hits, read-out: Proliferative Response, Fold over Wnt 3a/AA control) was 0.621. Besides, the “Proliferative Response Total cells” value in assay [3] (setting [5]) was found to be 787. For the same molecule, the “Proliferative Response Total cells” value in assay [3] (setting [6]) is 562. Moreover, the “HNF-3b Expression Total Intensity” value in assay [4] worked out at 10743082.
`O=C1NC(=O)C2=C1c1cn(c3ncccc13)CCOCCOCCOCCOCCOCCn1cc2c2cccnc21` [Compound 168, 10,11,13,14,16,17,19,20,22,23,25,26-Dodecahydro-1H-9,4:27,32-di(metheno)dipyrido[2,3-q:3′,2′-w]pyrrolo[3,4-t][1,4,7,10,13,16,25]pentaoxadiazacycloheptacosine-1,3(2H)-dione]: in assay [1], the Average is on record as 0.3421; the “Raw Data” value is 0.3702 and 0.3193 and 0.3368. Also, the “% Control” value in assay [1] (setting [10]) came out at 36.8%. For the same molecule, in assay [2], the “SOX-17 Expression Total Intensity” value was 2574279 and the “SOX-17 Expression Fold” value amounted to 0.0837 fold. The “Proliferative Response Total cells” value in assay [3] (setting [5]) was found to be 57. Moreover, the “Proliferative Response Fold” value in assay [3] (setting [7]) was 0.04523 fold. Also, the “Proliferative Response Total cells” value in assay [3] (setting [6]) came to 118. Besides, the “Proliferative Response Fold” value in assay [3] (setting [8]) came to 0.07046 fold. In addition, in assay [4], the “HNF-3b Expression Total Intensity” value worked out at 2584708 and the “HNF-3b Expression Fold” value was found to be 0.0943 fold.
For `O=C1NC(=O)C2=C1c1cn(c3ncccc13)CCOCCOCCOCCOCCn1cc2c2cccnc21` [Compound 169], in assay [1], the “% Control Value (proliferation)” value is given as 76.7%; the Average is reported as 0.7138; the “Raw Data” value is 0.5876 and 0.6384 and 0.9154. The “Average (of Raw Data)” value in assay [1] (setting [11]) was 0.3354. Moreover, the “% Control” value in assay [1] (setting [12]) is recorded as 24.4%. For the same molecule, the “SOX17 Expression, Fold” value in assay [2] is on record as 1.0342 Fold over Wnt 3a/AA control. The “Proliferative Response Fold” value in assay [3] (setting [9]) is 1.0764 Fold over Wnt 3a/AA control. The “HNF3β Expression, Fold” value in assay [4] was 0.9520 Fold over Wnt 3a/AA control.
With `CN(C)CCCn1cc(C2=C(c3cccc4ccccc34)C(=O)NC2=O)c2cccnc21` [Compound 175, 3-{1-[3-(Dimethylamino)propyl]-1H-pyrrolo[2,3-b]pyridin-3-yl}-4-naphthalen-1-yl-1H-pyrrole-2,5-dione], the Average in assay [1] was 0.1467. Moreover, the “SOX-17 Expression Total Intensity” value in assay [2] is reported as 0. Also, the “Proliferative Response Total cells” value in assay [3] (setting [5]) was 42; in assay [3] (setting [6]), 1. In addition, the “HNF-3b Expression Total Intensity” value in assay [4] is 1605538.
Turning to `O=C1NC(=O)C2=C1c1cn(c3ncccc13)CCOCCOCCn1cc2c2cccnc21` [Compound 180, 6,7,9,10,12,13-Hexahydro-20H-5,23:14,19-di(metheno)dipyrido[2,3-h:3′,2′-n]pyrrolo[3,4-k][1,4,7,16]dioxadiazacyclooctadecine-20,22(21H)-dione], the Average in assay [1] was determined as 0.1247. In assay [1] (setting [11]), the “Average (of Raw Data)” value came to 0.3793. Moreover, the “% Control” value was 29.3% in assay [1] (setting [12]) and 13.4% in assay [1] (setting [10]). Besides, the “Raw Data” value in assay [1] was 0.1239 and 0.1233 and 0.1269. For the same molecule, the “SOX-17 Expression Total Intensity” value in assay [2] was determined as 0. Further, in assay [2], the “SOX-17 Expression Fold” value is reported as 0.0000 fold. The “Proliferative Response Total cells” value in assay [3] (setting [5]) was found to be 4; in assay [3] (setting [6]) it was 3. In addition, the “Proliferative Response Fold” value in assay [3] (setting [7]) was determined as 0.003155 fold; in assay [3] (setting [8]), 0.001796 fold. Besides, the “HNF-3b Expression Total Intensity” value in assay [4] was 101114. Also, in assay [4], the “HNF-3b Expression Fold” value worked out at 0.0037 fold.
In the case of `O=C1NC(=O)C(c2cn(CCCO)c3ncccc23)=C1c1cn(CCCO)cn1` [Compound 182, 3-[1-(3-Hydroxypropyl)-1H-imidazol-4-yl]-4-[1-(3-hydroxypropyl)-1H-pyrrolo[2,3-b]pyridin-3-yl]-1H-pyrrole-2,5-dione], the Average in assay [1] was 0.2828. Moreover, the “SOX-17 Expression Total Intensity” value in assay [2] was 0. Besides, the figures for the “Proliferative Response Total cells” value in assay [3] (setting [5]) and in assay [3] (setting [6]) were 425 and 20, respectively. Moreover, in assay [4], the “HNF-3b Expression Total Intensity” value came to 8880858.

Source of the values: patent US20130337564A1, “Treatment of Pluripotent Cells” (Janssen Biotech, Inc., priority 2012, published 2013).
